Experimental data reported in ChEMBL document CHEMBL1133561, “A novel class of potent 3-isoxazolol GABA(A) antagonists: design, synthesis, and pharmacology” (J Med Chem, 2000).

Assays:
[1] = molecular target: GABA-A receptor; anion channel; test: In vitro inhibition of [3H]muscimol to rat brain synaptic membranes; type: cell membranes, Membrane
[2] = molecular target: GABA-A receptor; anion channel; test: Inhibition of Gamma-aminobutyric acid A (GABA-A) receptor in vitro by whole-cell patch-clamp recording in cultured cerebral cortical neurones; type: functional, Rattus norvegicus
[3] = molecular target: GABA-A receptor; anion channel; test: Inhibition against Gamma-aminobutyric acid A (GABA-A) receptor; type: protein-complex assay, Rattus norvegicus

Ki [1] [µM]	IC50 [2] [µM]	Structure (SMILES)	IC50 [3] [µM]
0.49		Oc1noc(C2CCNCC2)c1CCc1ccc2ccccc2c1	
3.8	4	Oc1noc(C2CCNCC2)c1Cc1ccccc1	
0.049		Oc1noc(C2CCNCC2)c1Cc1ccc2ccccc2c1	
5.9		Oc1noc(C2CCNCC2)c1Cc1c2ccccc2cc2ccccc12	
		Cc1c(O)noc1CN	> 100

Structure (SMILES)	Ki [1] [µM]	IC50 [2] [µM]	IC50 [3] [µM]
CCc1c(O)noc1C1CCNCC1	6.3		
Cc1c(O)noc1C1CCNCC1	10		
